Measurements taken from patent publication US20230012368A1 (Hoffmann-La Roche Inc., priority 2018, published 2023).
Where a name gives a salt, the structure may show the parent alone.

Test system: Acinetobacter baumannii ATCC 17978
Assay: Antimicrobial susceptibility testing: 90% growth inhibitory concentration (IC90) determination
Assay type: cell-based
Settings: 90% growth inhibitory concentration; Acinetobacter baumannii ATCC17978; Iso-Sensitest broth, OD 600 nm over 16h; read-out: ATCC17978 IC90
Summary of the method: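 Growth of the Acinetobacter baumannii strain was followed by optical density at 600 nm every 20 minutes for 16h at 35±2° C. Inoculum was ~5×10^(5) CFU/ml in Iso-Sensitest medium, with twofold compound dilutions (e.g. 50 to 0.097 μM final). The 90% inhibitory concentration was derived in log-phase growth.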

Structure (SMILES)	IC90
CCc1cc(Nc2nccn3c(-c4ccc(OC)c(F)c4F)cnc23)ccc1C(=O)N[C@H](CN)CO [Example 539, N-[(1R)-1-(aminomethyl)-2-hydroxy-ethyl]-4-[[3-(2,3-difluoro-4-methoxy-phenyl)imidazo[1,2-a]pyrazin-8-yl]amino]-2-ethyl-benzamide; formic acid]	410 nM
COc1ccc(-c2cnc3c(Nc4ccc(C(=O)N(C)CC(=O)N5CCNCC5)c(C)c4)nccn23)cc1F [Example 5, hydrochloride]	650 nM
COc1ccc(-c2cnc3c(Nc4ccc(C(=O)NCCCN)c(C(F)F)c4)nccn23)c(F)c1F [Example 165, N-(3-aminopropyl)-4-[[3-(2,3-difluoro-4-methoxy-phenyl)imidazo[1,2-a]pyrazin-8-yl]amino]-2-(difluoromethyl)benzamide; formic acid]	530 nM
COc1ccc(-c2cnc3c(Nc4ccc(C(=O)N(C)CCN5CCNCC5)c(Cl)c4)nccn23)cc1F [Example 90, 2-chloro-4-((3-(3-fluoro-4-methoxyphenyl)imidazo [1,2-a]pyrazin-8-yl)amino)-N-methyl-N-(2-(piperazin-1-yl)ethyl)benzamide hydrochloride]	230 nM

Same assay, conditions: Acinetobacter baumannii, ATCC17978, 16 h, 90% growth inhibitory concentration; Acinetobacter baumannii ATCC17978; Iso-Sensitest broth, OD 600 nm over 16h; read-out: ATCC17978 IC90

Structure (SMILES)	IC90
Cc1cc(Nc2nccn3c(-c4ccc(OC(F)F)cc4)cnc23)ccc1C(=O)NCC1CCN(C)CC1 [Example 198, 4-[[3-[4-(difluoromethoxy)phenyl]im-idazo[1,2-a]pyrazin-8-yl]amino]-2-methyl-N-[(1-methylpiperidin-4-yl)methyl]benzamide]	720 nM
CN(C)C(=O)c1ccc(Nc2nccn3c(-c4ccc(OC(F)F)cc4)cnc23)cc1CO [Example 259, 4-[[3-[4-(difluoromethoxy)phenyl]im-idazo[1,2-a]pyrazin-8-yl]amino]-2-(hydroxymethyl)-N,N-dimethylbenzamide]	4100 nM
CCc1cc(Nc2nccn3c(-c4ccc(Oc5ncccn5)c(F)c4F)cnc23)ccc1C(=O)NCCNC(=O)CCN [Example 431, N-[2-(3-aminopropanoylamino)ethyl]-4-[[3-(2,3-difluoro-4-pyrimidin-2-yloxy-phenyl)imidazo[1,2-a]pyrazin-8-yl]amino]-2-ethyl-benzamide; formic acid]	530 nM
Cn1ccc(CNC(=O)c2ccc(Nc3nccn4c(-c5ccc(OCC#N)c(F)c5F)cnc34)cc2Cl)cc1=O [Example 86, 2-chloro-4-[[3-[4-(cyanomethoxy)-2,3-difluoro-phenyl]imidazo[1,2-a]pyrazin-8-yl]amino]-N-[(1-methyl-2-oxo-4-pyridyl)methyl] benzamide]	140 nM
CCc1cc(Nc2nccn3c(-c4ccc(OC)c(F)c4F)cnc23)ccc1C(=O)NCC1CCN(CCC2CCCN2)CC1 (centres unmarked) [Example 556, 4-[[3-(2,3-difluoro-4-methoxy-phenyl)imidazo[1,2-a]pyrazin-8-yl]amino]-2-ethyl-N-[[1-(2-pyrrolidin-2-ylethyl)-4-piperidyl]methyl]benzamide]	310 nM
Cc1cc(Nc2nccn3c(-c4ccc(OC(F)F)cc4)cnc23)ccc1C(=O)NCC1CNCCO1 (centres unmarked) [Example 242, 4-[[3-[4-(difluoromethoxy)phenyl]im-idazo[1,2-a]pyrazin-8-yl]amino]-2-methyl-N-(morpholin-2-ylmethyl)benzamide; hydrochlo-ride]	2000 nM
CCc1cc(Nc2nccn3c(-c4ccc(OC)c(F)c4F)cnc23)ccc1C(=O)N[C@@H](C)CNC(C)=N [Example 480, 4-[[3-(2,3-difluoro-4-methoxyphenyl)imidazo[1,2-a]pyrazin-8-yl]amino]-#N!- [(2#S!)-1-(ethanimidoylamino)propan-2-yl]-2-ethylbenzamide;formic acid]	270 nM
COc1ccc(-c2cnc3c(Nc4ccc(C(=O)NCCN5CCNCC5)c(C)c4)nccn23)cc1F [Example 199, 4-[[3-(3-fluoro-4-methoxyphenyl)imidazo[1,2-a]pyrazin-8-yl]amino]-2-methyl-N-(2-piperazin-1-ylethyl)benzamide;hydrochlo-ride]	420 nM
CCc1cc(Nc2nccn3c(-c4ccc(OCC#N)c(F)c4F)cnc23)ccc1C(=O)NCCNC(=O)[C@@H](N)CCCNC(=N)N [Example 124, N-[2-[[(2S)-2-amino-5-guanidino-pentanoyl]amino]ethyl]-4-[[3-[4-(cyanomethoxy)-2,3-difluoro-phenyl]imidazo[1,2-a]pyrazin-8-yl]amino]-2-ethyl-benzamide formate]	90 nM
COc1ccc(-c2cnc3c(Nc4ccc5c(c4)CCN(C)C5=O)nccn23)cc1F [Example 274, 6-[[3-(3-fluoro-4-methoxyphenyl)imidazo[1,2-a]pyrazin-8-yl]amino]-2-methyl-3,4-dihydroisoquinolin-1-one]	240 nM
CCc1cc(Nc2nccn3c(-c4ccc(Oc5ccc(OCCCN)cn5)c(F)c4F)cnc23)ccc1C(=O)N(C)C [Example 510, 4-[[3-[4-[[5-(3-aminopropoxy)-2-pyridyl]oxy]-2,3-difluoro-phenyl]imidazo[1,2-a]pyrazin-8-yl]amino]-2-ethyl-N,N-dimethyl-benzamide; formic acid]	860 nM
COc1ccc(-c2cnc3c(Nc4ccc(C(=O)N(C)C)c(C)c4)nccn23)cc1 [Example 13, 4-((3-(4-methoxyphenyl)imidazo [1,2-a]pyrazin-8-yl)amino)-N,N,2-trimethylbenzamide]	240 nM

Results, then the compound that gave them:

IC90	Structure (SMILES)
160 nM	Cc1cc(Nc2nccn3c(-c4ccc(OC(F)F)cc4)cnc23)ccc1C(=O)NCCCCCN1CCOCC1 [Example 25, 4-((3-(4-(difluoromethoxy)phenyl)imidazo[1,2-a]pyrazin-8-yl)amino)-2-methyl-N-(5-morpholinopentyl) benzamide]
150 nM	CCc1cc(Nc2nccn3c(-c4ccc(OC)c(F)c4F)cnc23)ccc1C(=O)NC[C@@H]1CNC[C@@H]1O [Example 531, 4-((3-(2,3-difluoro-4-methoxyphenyl)imidazo[1,2-a]pyrazin-8-yl)amino)-2-ethyl-N-(((3S,4R)-4-hydroxypyrrolidin-3-yl)methyl)benzamide hydrochloride]
70 nM	CCc1cc(Nc2nccn3c(-c4ccc(OCC#N)c(F)c4F)cnc23)ccc1C(=O)NCCNC(=O)CCN [Example 137, N-[2-(3-aminopropanoyl-amino)ethyl]-4-[[3-[4-(cyanomethoxy)-2,3-difluoro-phenyl]imidazo[1,2-a]pyrazin-8-yl]amino]-2-ethyl-benzamide formate]
360 nM	CCc1cc(Nc2nccn3c(-c4ccc(OC)c(F)c4F)cnc23)ccc1C(=O)NCC(O)CN1CCCC1 (centres unmarked) [Example 304, 4-[[3-(2,3-difluoro-4-methoxyphenyl)imidazo[1,2-a]pyrazin-8-yl]amino]-2-ethyl-N-(2-hydroxy-3-pyrrolidin-1-ylpropyl)benzamide]
8900 nM	COc1ccc(-c2cnc3c(Nc4ccc(C(=O)N(C)CCCC(=O)O)c(C)c4)nccn23)cc1F [Example 174, 4-[[4-[[3-(3-fluoro-4-methoxyphenyl)imidazo[1,2-a]pyrazin-8-yl]amino]-2-methylbenzoyl]-methylamino]butanoic acid]
310 nM	CCc1cc(Nc2nccn3c(-c4ccc(Oc5ncccn5)c(F)c4F)cnc23)ccc1C(=O)NCCCNC(=O)C1CCN(CC2CCNC2)CC1 (centres unmarked) [Example 545, N-(3-(4-((3-(2,3-difluoro-4-(pyrimidin-2-yloxy)phenyl)imidazo[1,2-a]pyrazin-8-yl)amino)-2-ethylbenzamido)propyl)-1-(pyrrolidin-3-ylmethyl)piperidine-4-carboxamide formate]
470 nM	COc1ccc(-c2cnc3c(Nc4ccc(C(=O)NCCN5CCN(C)CC5)c(C)c4)nccn23)cc1 [Example 49]
610 nM	CCN(CC)C(=O)c1ccc(Nc2nccn3c(-c4ccc(OC)cc4)cnc23)cc1 [Example 227, N,N-diethyl-4-[[3-(4-methoxyphenyl)imidazo[1,2-a]pyrazin-8-yl]amino]benzamide]
2100 nM	COc1ccc(-c2cnc3c(Nc4ccc(C(=O)NCCCN)c(CC(F)F)c4)nccn23)c(F)c1F [Example 316, N-(3-aminopropyl)-2-(2,2-difluoroethyl)-4-[[3-(2,3-difluoro-4-methoxyphenyl)imidazo[1,2-a]pyrazin-8-yl]amino]benzamide;formic acid]
1300 nM	COc1ccc(-c2cnc3c(Nc4ccc(C(=O)NCCNC(=O)N5CCN[C@@H](C(=O)O)C5)c(C)c4)nccn23)c(F)c1F [Example 352, (2R)-4-[2-[[4-[[3-(2,3-difluoro-4-methoxyphenyl)imidazo[1,2-a]pyrazin-8-yl]amino]-2-methylbenzoyl]amino]ethyl-carbamoyl]piperazine-2-carboxylic acid;formic acid]
510 nM	CCc1cc(Nc2nccn3c(-c4ccc(Oc5ccc(OCCN)cn5)c(F)c4F)cnc23)ccc1C(=O)NC [Example 512, 4-[[3-[4-[[5-(2-aminoethoxy)-2-pyridyl]oxy]-2,3-difluoro-phenyl]imidazo[1,2-a]pyrazin-8-yl]amino]-2-ethyl-N-methyl-benzamide; formic acid]
660 nM	CCc1cc(Nc2nccn3c(-c4ccc(Oc5ccncn5)c(F)c4F)cnc23)ccc1C(=O)N[C@@H](C)CNC(=O)[C@H](N)CCNC(=N)N [Example 458, N-[(1S)-2-[[(2R)-2-amino-4-guanidino-butanoyl]amino]-1-methyl-ethyl]-4-[[3-(2,3-difluoro-4-pyrimidin-4-yloxy-phenyl)imidazo[1,2-a]pyrazin-8-yl]amino]-2-ethyl-benzamide; formic acid]
50 nM	COc1ccc(-c2cnc3c(Nc4ccc(C(=O)NCCCNC(=O)[C@@H]5C[C@@H](O)CN5)c(C)c4)nccn23)c(F)c1F [Example 358, (2S,4R)-N-[3-[[4-[[3-(2,3-difluoro-4-methoxyphenyl)imidazo[1,2-a]pyrazin-8-yl]amino]-2-methylbenzoyl]amino]propyl]-4-hydroxypyrrolidine-2-carboxamide]
